{"source": "patent US8546091B2", "about": "“AKT phosphorylation at Ser473 as an indicator for taxane-based chemotherapy” (The United States of America, as represented by the …, priority 2009, dated 2013)", "key": {"[1]": {"test_system": "node-positive breast cancer", "format": "in vivo, human", "from_the_text": "We designed and conducted a study to correlate Akt phosphorylation with clinical outcome through the primary tumor specimens from the National Surgical Adjuvant Breast and Bowel Project B-28 trial. We tested the hypothesis that phosphorylation of Akt at serine 473 (“pAkt”) predicts a benefit for women with node-positive breast cancer from the sequential addition of paclitaxel after adjuvant doxorubicin plus cyclophosphamide chemotherapy.\nEligible patients signed an approved informed consent which includes tissue collection and research use of collected tissue conforming to federal and institutional guidelines. In this study, the biomarker protocol for the evaluation of Akt phosphorylation in association with disease-free survival and overall survival in patients with node-positive breast cancer treated with either adjuvant doxorubicin plus cyclophosphamide only or followed by paclitaxel was approved by the Institutional Review Boards of the National Cancer institute (Bethesda, Md.) and the National Surgical Adjuvant Breast and Bowel Project (Pittsburgh, Pa.).\nHER2 status on the microarray sections were determined by the NSABP central pathology laboratory using PathVision fluorescent in situ hybridization (FISH) assay according to the FDA approved protocol per the manufacturer (Vysis, Downers Grove. Ill.). Data were expressed as the number of HER2 genes per chromosome 17 centromere: tumors with a ratio of […] were classified as HER2-positive, and those with a ratio of <2 were defined as HER2-negative. Estrogen receptor status in tissue microarray sections were also determined by the NSABP central pathology laboratory by immunohistochemistry according to the FDA approved protocol provided by DAKO (PharmDx kit; Carpinteria, Calif.). A positive result (tumor cell nuclear staining) for ER is defined as a total score (ranging from 0, 2-8) of ≧3. The total score is the sum of a proportion score from 0 to 5 and an intensity score of 0 to 3.\nSections were incubated with primary antibody in 1 to 100 dilution for 1 hour at room temperature, and binding of the antibody to its antigenic sites was amplified using Vectastain Elite avidin-biotin peroxidase complex kits (Vector Laboratories, Burlingame, Calif.). The antigen-antibody reaction sites were visualized using 3,3-diaminobenzidine for 7 minutes and, subsequently, sections were counterstained with Mayer's hematoxylin. Breast cancer cell line MDA-MB-468 which expresses pAkt, and a breast cancer specimen known to express pAkt were utilized as positive controls. Negative control was performed using isotype immunoglobulins appropriate to the primary antibodies being used (Zymed Laboratories, South San Francisco, Calif.). The immunostained tissue microarray cores with either cytoplasmic or membranous or nuclear signal were analyzed with the assistance of an Automated Cellular Imaging System (DAKO), blinded to all clinical information, after excluding tissue cores with less than 5% of invasive tumor cells present. The staining intensity and percentage of tumor cells on each tissue core was calculated by the digital imaging system. The staining index ranging from 0 to 62.8 reporting levels of Akt phosphorylation at Ser473 was determined by the percentage multiplied by intensity of staining divided by 100 (intensity X percentage/100) in tumor cells, in which the intensity was subtracted from the average tissue readout of three normal tissue cores. These cores serve as the position markers and tissue negative controls for each array slide."}, "[2]": {"test_system": "node-positive breast cancer", "details": "NSABP B-28, Mamounas et al. 2005; paclitaxel after AC vs AC alone; cited from earlier work"}, "cancer cells": {"test_system": "cancer cells", "details": "literature (MacKeigan 2002; Asakuma 2003); cited from earlier work"}, "[3]": {"test_system": "Akt phosphorylation at serine 473", "details": "literature (MacKeigan 2002; Asakuma 2003); cited from earlier work"}}, "note": "Read-outs that look alike come from different tables or passages of the source."}
{"smiles": "CC(=O)O[C@H]1C(=O)[C@@]2(C)[C@H]([C@H](OC(=O)c3ccccc3)[C@]3(O)C[C@H](OC(=O)[C@H](O)[C@@H](NC(=O)c4ccccc4)c4ccccc4)C(C)=C1C3(C)C)[C@]1(OC(C)=O)CO[C@@H]1C[C@@H]2O", "note": "[paclitaxel]", "values": [{"measurement": "hazard ratio for disease-free survival", "setting": "[1]; 606 patients with pAkt positive cancer, with vs without paclitaxel, FIG. 1B, P=0.027", "value": 0.75}, {"measurement": "hazard ratio for disease-free survival", "setting": "[1]; 975 patients with pAkt-negative cancer, with vs without paclitaxel, FIG. 1A, P=0.44", "value": 1.08}, {"measurement": "hazard ratio for overall survival", "setting": "[1]; 1581 patients with pAkt measurement, follow-up 9.1 years, 95% CI 0.79-1.15, P=0.63", "value": 0.96}, {"measurement": "hazard ratio for disease-free survival", "setting": "[1]; 1581 patients with pAkt measurement, follow-up 9.1 years, 95% CI 0.81-1.10, P=0.46", "value": 0.94}, {"measurement": "improvement in disease-free survival", "setting": "[1]; entire B-28 population with pAkt-Ser473 measurements, positive or negative, approximate 10 years of follow-up", "value": 6, "unit": "%"}, {"measurement": "hazard ratio for overall survival", "setting": "[1]; entire B-28 population, approximate 10 years of follow-up, addition of paclitaxel to AC vs AC, 95% CI 0.81-1.06, P=0.25", "value": 0.92}, {"measurement": "hazard ratio for disease-free survival", "setting": "[1]; entire B-28 population, approximate 10 years of follow-up, sequential addition of paclitaxel to AC vs AC, 95% CI 0.79 to 0.99, P=0.034", "value": 0.89}, {"measurement": "adjusted hazard ratio for disease-free survival", "setting": "[1]; pAkt negative cancer, multivariate proportional-hazards model, FIG. 1C, P=0.81", "value": 1.02}, {"measurement": "adjusted hazard ratio for disease-free survival", "setting": "[1]; pAkt positive breast cancer, multivariate proportional-hazards model, FIG. 1C, P=0.02", "value": 0.74}, {"measurement": "hazard ratio for overall survival", "setting": "[1]; pAkt-negative cancer, P=0.74", "value": 1.04}, {"measurement": "adjusted hazard ratio for disease-free survival", "setting": "[1]; pAkt-negative, HER2-negative tumors, FIG. 3C, P=0.36", "value": 1.12}, {"measurement": "adjusted hazard ratio for disease-free survival", "setting": "[1]; pAkt-negative, HER2-positive tumors, FIG. 3A, P=0.88", "value": 0.96}, {"measurement": "adjusted hazard ratio for disease-free survival", "setting": "[1]; pAkt-negative, estrogen-receptor positive tumors, FIG. 2A, P=0.64", "value": 1.06}, {"measurement": "adjusted hazard ratio for disease-free survival", "setting": "[1]; pAkt-negative, estrogen-receptor-negative tumors, FIG. 2C, P=0.79", "value": 1.04}, {"measurement": "improvement in disease-free survival", "setting": "[1]; pAkt-positive breast cancer, sequential addition of paclitaxel", "value": 26, "unit": "%"}, {"measurement": "hazard ratio for overall survival", "setting": "[1]; pAkt-positive cancer, P=0.226", "value": 0.83}, {"measurement": "adjusted hazard ratio for disease-free survival", "setting": "[1]; pAkt-positive, HER2-negative tumors, FIG. 3D, P=0.03", "value": 0.70}, {"measurement": "adjusted hazard ratio for disease-free survival", "setting": "[1]; pAkt-positive, HER2-positive tumors, FIG. 3B, P=0.28", "value": 0.72}, {"measurement": "adjusted hazard ratio for disease-free survival", "setting": "[1]; pAkt-positive, estrogen receptor-negative tumors, FIG. 2D, P=0.052", "value": 0.66}, {"measurement": "adjusted hazard ratio for disease-free survival", "setting": "[1]; pAkt-positive, estrogen receptor-positive tumors, FIG. 2B, P=0.24", "value": 0.82}, {"measurement": "effect on disease-free and overall survival", "setting": "[2]", "value": "significantly improve disease-free survival but not overall survival"}, {"measurement": "effect on survival of cancer cells", "setting": "cancer cells", "value": "reduces the survival cancer cells"}, {"measurement": "effect on Akt phosphorylation at serine 473", "setting": "[3]", "value": "inhibits Akt phosphorylation at serine 473"}]}
